This note sets out measurements from US12195482B1 (Arcus Biosciences, Inc., priority 2022, dated 2025).

Some results are limits rather than exact numbers.

Experiment [1] addresses T1, p-AXL (Homo sapiens, UniProt P30530).
T1 construct: expressed in transfected cells; host or cells: HEK293T
T1 sequence (P30530 26-894): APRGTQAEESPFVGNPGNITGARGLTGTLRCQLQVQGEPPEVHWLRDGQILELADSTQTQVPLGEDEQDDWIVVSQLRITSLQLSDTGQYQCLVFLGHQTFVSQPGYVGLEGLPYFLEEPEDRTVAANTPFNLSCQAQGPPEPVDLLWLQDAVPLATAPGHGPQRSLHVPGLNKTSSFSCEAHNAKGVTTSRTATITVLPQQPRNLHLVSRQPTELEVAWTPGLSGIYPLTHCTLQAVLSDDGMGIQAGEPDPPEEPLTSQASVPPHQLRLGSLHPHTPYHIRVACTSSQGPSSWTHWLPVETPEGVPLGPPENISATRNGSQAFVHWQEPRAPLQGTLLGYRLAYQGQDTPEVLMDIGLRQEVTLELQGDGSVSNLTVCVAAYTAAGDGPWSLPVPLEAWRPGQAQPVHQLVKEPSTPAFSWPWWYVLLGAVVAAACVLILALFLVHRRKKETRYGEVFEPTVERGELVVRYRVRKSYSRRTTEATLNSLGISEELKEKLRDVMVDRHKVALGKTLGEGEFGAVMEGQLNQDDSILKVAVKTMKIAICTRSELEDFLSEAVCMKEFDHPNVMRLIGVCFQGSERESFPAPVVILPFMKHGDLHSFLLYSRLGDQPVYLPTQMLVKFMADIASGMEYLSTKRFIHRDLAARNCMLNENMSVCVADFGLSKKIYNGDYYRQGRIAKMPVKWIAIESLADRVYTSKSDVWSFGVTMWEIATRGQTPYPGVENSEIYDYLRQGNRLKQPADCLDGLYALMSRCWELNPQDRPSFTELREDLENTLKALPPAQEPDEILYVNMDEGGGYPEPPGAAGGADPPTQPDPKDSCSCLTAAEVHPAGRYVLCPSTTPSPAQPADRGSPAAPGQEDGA
Kind of experiment: Axl phosphorylation inhibition ELISA in HEK293T cells transfected with NanoLuc-tagged AXL. As to conditions: 1 h compound incubation, media (OptiMEM). Type of experiment: cell-based. The method in brief:
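Phospho-AXL detected by luminescence of NanoLuc tag after capture of cell lysate on biotinylated anti-phospho-tyrosine mAb plates (2 h). Lysates came from transiently transfected HEK293T cells treated 1 h at 37° C with serial 2-fold dilutions (22 points). IC50 by standard 4-parameter logistic fitting.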
On the technique in general: In an ELISA, binding on a coated surface is turned into a signal by an enzyme label.

The target in experiment [2] is T2, Axl (Homo sapiens, UniProt P30530).
T2 sequence (P30530 26-894): T1 sequence (P30530 26-894)
Kind of experiment: Biochemical potency, HTRF KinEASE-TK kinase assay. More on the design: purchased Invitrogen. The settings on record: 5 nM AXL, 700 μM ATP. The method in brief: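 Phosphorylation of a biotinylated tyrosine-kinase peptide (800 nM) by AXL (5 nM) or TYRO3/MER (1 nM) is measured at 700 µM ATP after 2 h at room temperature, following 1 h enzyme–compound preincubation. Signal is the time-resolved FRET ratio, converted to percent activity.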

Take `Cc1ccc(C)c(-c2ccc(-c3c[nH]c4ncc(-c5ccc6c(c5)CC[C@@](C)(N5CCC[C@H]5C)CC6)cc34)cc2)n1` [Example 147, 3,6-Dimethyl-2-(4-{5-[(7S)-7-methyl-7-[(2R)-2-methylpyrrolidin-1-yl]-6,7,8,9-tetrahydro-5H-benzo[7]annulen-2-yl]-1H-pyrrolo[2,3-b]pyridin-3-yl}phenyl)pyridine]: the IC50 in experiment [1] and in experiment [2] was below 100 nM each time.
For `Cc1ccc(C)c(-c2ccc(-c3c[nH]c4ncc(-c5ccc6c(c5)CC[C@@H](N5CCCC5)CC6)cc34)cc2)n1` [Example 148, 3,6-Dimethyl-2-(4-{5-[(7S)-7-(pyrrolidin-1-yl)-6,7,8,9-tetrahydro-5H-benzo[7]annulen-2-yl]-1H-pyrrolo[2,3-b]pyridin-3-yl}phenyl)pyridine], the IC50 – broadly, the concentration at which inhibition is half-maximal – in experiment [1] is 100 to 1000 nM; in experiment [2] it was below 100 nM.
With `c1cnc(-c2ccc(-c3n[nH]c4ncc(-c5ccc6c(c5)CC[C@@H](N5C7COCC5C7)CC6)cc34)cc2)c(C2CCOCC2)c1` [Example 149, 6-[(7S)-2-(3-{4-[3-(Oxan-4-yl)pyridin-2-yl]phenyl}-1H-pyrazolo[3,4-b]pyridin-5-yl)-6,7,8,9-tetrahydro-5H-benzo[7]annulen-7-yl]-3-oxa-6-azabicyclo[3.1.1]heptane], the IC50 in experiment [1] and in experiment [2] was below 100 nM in each case.
Turning to `c1cc2c(c(-c3ccc(-c4n[nH]c5ncc(-c6ccc7c(c6)CC[C@@H](N6C8COCC6C8)CC7)cc45)cc3)n1)NCCO2` [Example 150, 6-[(7S)-2-[3-(4-{2H,3H,4H-Pyrido[4,3-b][1,4]oxazin-5-yl}phenyl)-1H-pyrazolo[3,4-b]pyridin-5-yl]-6,7,8,9-tetrahydro-5H-benzo[7]annulen-7-yl]-3-oxa-6-azabicyclo[3.1.1]heptane], the IC50 in experiment [1] is 100 to 1000 nM; in experiment [2], below 100 nM.
In the case of `CN1CCOc2ccnc(-c3ccc(-c4n[nH]c5ncc(-c6ccc7c(c6)CC[C@@H](N6C8COCC6C8)CC7)cc45)cc3)c21` [Example 151, 6-[(7S)-2-[3-(4-{4-Methyl-2H,3H,4H-pyrido[4,3-b][1,4]oxazin-5-yl}phenyl)-1H-pyrazolo[3,4-b]pyridin-5-yl]-6,7,8,9-tetrahydro-5H-benzo[7]annulen-7-yl]-3-oxa-6-azabicyclo[3.1.1]heptane], the IC50 in experiment [1] and in experiment [2] was below 100 nM throughout.
`COc1ccnc(-c2ccc(-c3n[nH]c4ncc(-c5ccc6c(c5)CC[C@@H](N5C7COCC5C7)CC6)cc34)cc2)c1OC` [Example 152, 6-[(7S)-2-{3-[4-(3,4-Dimethoxypyridin-2-yl)phenyl]-1H-pyrazolo[3,4-b]pyridin-5-yl}-6,7,8,9-tetrahydro-5H-benzo[7]annulen-7-yl]-3-oxa-6-azabicyclo[3.1.1]heptane]: the 50% inhibitory concentration (IC50) in experiment [1] and in experiment [2] was below 100 nM in each case.
For `Cc1cccnc1-c1ccc(-c2c[nH]c3ncc(-c4ccc5c(c4)CC[C@@H](N4C6COCC4C6)CC5)cc23)c(F)c1` [Example 153, 6-[(7S)-2-{3-[2-Fluoro-4-(3-methylpyridin-2-yl)phenyl]-1H-pyrrolo[2,3-b]pyridin-5-yl}-6,7,8,9-tetrahydro-5H-benzo[7]annulen-7-yl]-3-oxa-6-azabicyclo[3.1.1]heptane], the IC50 in experiment [1] and in experiment [2] was below 100 nM in each case.
Consider `Cc1cccnc1-c1cnc(-c2c[nH]c3ncc(-c4ccc5c(c4)CC[C@@H](N4C6COCC4C6)CC5)cc23)cn1` [Example 184, 6-[(7S)-2-{3-[5-(3-Methylpyridin-2-yl)pyrazin-2-yl]-1H-pyrrolo[2,3-b]pyridin-5-yl}-6,7,8,9-tetrahydro-5H-benzo[7]annulen-7-yl]-3-oxa-6-azabicyclo[3.1.1]heptane], for which the IC50 in experiment [1] and in experiment [2] was below 100 nM each time.
Consider `Cc1ccc(C)c(-c2ccc(-c3n[nH]c4ncc(-c5ccc6c(c5)CC[C@@H](N5C7COCC5C7)CC6)cc34)cc2C)n1` [Example 185, 6-[(7S)-2-{3-[4-(3,6-Dimethylpyridin-2-yl)-3-methylphenyl]-1H-pyrazolo[3,4-b]pyridin-5-yl}-6,7,8,9-tetrahydro-5H-benzo[7]annulen-7-yl]-3-oxa-6-azabicyclo[3.1.1]heptane], for which the IC50 in experiment [1] was 100 to 1000 nM; in experiment [2], below 100 nM.
Taken in the same sequence, the figures for `Cc1cnc(-c2ccc(-c3n[nH]c4ncc(-c5ccc6c(c5)CC[C@@](C)(N5CCC[C@H]5C)CC6)cc34)cc2)c(C)n1` [Example 188, 3,5-Dimethyl-2-(4-{5-[(7S)-7-methyl-7-[(2R)-2-methylpyrrolidin-1-yl]-6,7,8,9-tetrahydro-5H-benzo[7]annulen-2-yl]-1H-pyrazolo[3,4-b]pyridin-3-yl}phenyl)pyrazine] were below 100 nM and below 100 nM.
Take `Cc1cnc(-c2ccc(-c3n[nH]c4ncc(-c5ccc6c(c5)CC[C@@H](N5CCCC5)CC6)cc34)cc2)c(C)n1` [Example 189, 3,5-Dimethyl-2-(4-{5-[(7S)-7-(pyrrolidin-1-yl)-6,7,8,9-tetrahydro-5H-benzo[7]annulen-2-yl]-1H-pyrazolo[3,4-b]pyridin-3-yl}phenyl)pyrazine]: the values for the IC50 in experiment [1] and in experiment [2] were 100 to 1000 nM and below 100 nM, respectively.
Take `Cc1cnc(-c2ccc(-c3n[nH]c4ncc(-c5ccc6c(c5)CC[C@@H](N5C7COCC5C7)CC6)cc34)cc2)c(C)n1` [Example 190, 6-[(7S)-2-{3-[4-(3,5-Dimethylpyrazin-2-yl)phenyl]-1H-pyrazolo[3,4-b]pyridin-5-yl}-6,7,8,9-tetrahydro-5H-benzo[7]annulen-7-yl]-3-oxa-6-azabicyclo[3.1.1]heptane]: the IC50 was 100 to 1000 nM in experiment [1] and below 100 nM in experiment [2].
For `Cc1ccc(C)c(-c2ccc(-c3c[nH]c4ncc(-c5ccc6c(c5)CC[C@@H](N5C7COCC5C7)CC6)cc34)cc2C)n1` [Example 191, 6-[(7S)-2-{3-[4-(3,6-Dimethylpyridin-2-yl)-3-methylphenyl]-1H-pyrrolo[2,3-b]pyridin-5-yl}-6,7,8,9-tetrahydro-5H-benzo[7]annulen-7-yl]-3-oxa-6-azabicyclo[3.1.1]heptane], the concentration for half-maximal inhibition (IC50) in experiment [1] and in experiment [2] was below 100 nM in each case.
For `Cc1ccc(C(C)(C)O)nc1-c1ccc(-c2n[nH]c3ncc(-c4ccc5c(c4)CC[C@@H](N4C6COCC4C6)CC5)cc23)cc1` [Example 192, 2-[5-Methyl-6-(4-{5-[(7S)-7-{3-oxa-6-azabicyclo[3.1.1]heptan-6-yl}-6,7,8,9-tetrahydro-5H-benzo[7]annulen-2-yl]-1H-pyrazolo[3,4-b]pyridin-3-yl}phenyl)pyridin-2-yl]propan-2-ol], the 50% inhibitory concentration (IC50) was 100 to 1000 nM in experiment [1] and below 100 nM in experiment [2].
On the same counts, the results for `Cc1cccnc1-c1cnc(-c2n[nH]c3ncc(-c4ccc5c(c4)CC[C@@H](N4C6COCC4C6)CC5)cc23)cn1` [Example 193, 6-[(7S)-2-{3-[5-(3-Methylpyridin-2-yl)pyrazin-2-yl]-1H-pyrazolo[3,4-b]pyridin-5-yl}-6,7,8,9-tetrahydro-5H-benzo[7]annulen-7-yl]-3-oxa-6-azabicyclo[3.1.1]heptane] are below 100 nM and below 100 nM.
Take `c1cc2c(c(-c3ccc(-c4c[nH]c5ncc(-c6ccc7c(c6)CC[C@@H](N6C8COCC6C8)CC7)cc45)cc3)n1)OCCO2` [Example 194, 6-[(7S)-2-[3-(4-{2H,3H-[1,4]Dioxino[2,3-c]pyridin-5-yl}phenyl)-1H-pyrrolo[2,3-b]pyridin-5-yl]-6,7,8,9-tetrahydro-5H-benzo[7]annulen-7-yl]-3-oxa-6-azabicyclo[3.1.1]heptane]: the 50% inhibitory concentration (IC50) in experiment [1] and in experiment [2] was below 100 nM in each case.
On to `Cc1cc(C)c(-c2ccc(-c3n[nH]c4ncc(-c5ccc6c(c5)CC[C@@H](N5C7COCC5C7)CC6)cc34)cc2)cn1` [Example 195, 6-[(7S)-2-{3-[4-(4,6-Dimethylpyridin-3-yl)phenyl]-1H-pyrazolo[3,4-b]pyridin-5-yl}-6,7,8,9-tetrahydro-5H-benzo[7]annulen-7-yl]-3-oxa-6-azabicyclo[3.1.1]heptane], for which the half-inhibitory concentration (IC50) in experiment [1] was 100 to 1000 nM; in experiment [2], below 100 nM.
For `Cc1cc(C)c(-c2ccc(-c3c[nH]c4ncc(-c5ccc6c(c5)CC[C@@H](N5C7COCC5C7)CC6)cc34)cc2)cn1` [Example 196, 6-[(7S)-2-{3-[4-(4,6-Dimethylpyridin-3-yl)phenyl]-1H-pyrrolo[2,3-b]pyridin-5-yl}-6,7,8,9-tetrahydro-5H-benzo[7]annulen-7-yl]-3-oxa-6-azabicyclo[3.1.1]heptane], the IC50 in experiment [1] is 100 to 1000 nM; in experiment [2], below 100 nM.
